Paper PMC8222394 (Nature Communications, 2021)
Where “and” joins values, the source holds several entries; their conditions need not be identical. Equal entries are not always repeated. Where two headings read alike, the source gives them in different places.

Key:
SARS-CoV-2 pseudovirus [1] = assay: microbe, parasite or virus in culture; assay type: cell-based; settings: Severe acute respiratory syndrome-related coronavirus
SARS-CoV-2 pseudovirus [2] = assay type: cell-based
SARS-CoV-2 pseudovirus [3] = assay type: cell-based; remark: listed apart in the source
[4] = test system: SARS-CoV-2 (wildtype-USA-WA1/2020); assay type: cell-based
TMPRSS2-V5 = assay type: cell-based, human
ST14 = assay: RT-qPCR of ST14 mRNA in Caco-2 cells; assay type: cell-based, human; settings: Fig. S3B, Caco-2, 6 hr, relative to Veh
DCAF1 [5] = assay: qPCR of DCAF1 gene expression in Caco-2 cells; assay type: cell-based, human
DCAF1 [6] = assay: Cellular thermal shift assay, DCAF1; assay type: binding, human; settings: Beas-2B, HFG 3 μM 1 h
TMPRSS2 [7] = assay: In vitro transcription and translation proline treatment assay; assay type: biochemical; settings: with or without L-proline supplementation
Description: TMPRSS2 constructs were synthesized in vitro using TnT Coupled Reticulocyte Lysate System (Promega) following manufacturer’s protocol. HFG plus proline assays were conducted using in vitro transcription and translation kit with free amino acids diluted 5-fold and proline supplemented at indicated concentrations. Following synthesis, products were analyzed via immunoblotting.

SARS-CoV-2 pseudovirus [8] = assay: Cell-based proline treatment, pseudoviral entry; settings: for pseudoviral entry relative to Veh: replicates, listed as HFG
E-cadherin = assay: Immunoblot of E-cadherin in Caco-2 cells; assay type: cell-based, human
Ace2-GFP = assay: Immunoblot of Ace2-GFP in Beas-2B cells; assay type: cell-based
TMPRSS2 [9] = settings: for TMPRSS2 densitometry (relative to 0): Fig. 4C, Caco-2, 18 h; for TMPRSS2 densitometry (relative to 0) / TMPRSS2 densitometry, time course: listed as HFG; for TMPRSS2 densitometry, time course: Fig. 4D, Caco-2, 3 µM
TMPRSS2 [10] = settings: Calu-3 cells
TMPRSS2 [11] = test system: TMPRSS2
TMPRSS2 [12] = biological target: T1, TMPRSS2 (Homo sapiens, UniProt O15393); settings: Beas-2B, HFG 3 μM 1 h
Target sequence in this assay (O15393 whole entry): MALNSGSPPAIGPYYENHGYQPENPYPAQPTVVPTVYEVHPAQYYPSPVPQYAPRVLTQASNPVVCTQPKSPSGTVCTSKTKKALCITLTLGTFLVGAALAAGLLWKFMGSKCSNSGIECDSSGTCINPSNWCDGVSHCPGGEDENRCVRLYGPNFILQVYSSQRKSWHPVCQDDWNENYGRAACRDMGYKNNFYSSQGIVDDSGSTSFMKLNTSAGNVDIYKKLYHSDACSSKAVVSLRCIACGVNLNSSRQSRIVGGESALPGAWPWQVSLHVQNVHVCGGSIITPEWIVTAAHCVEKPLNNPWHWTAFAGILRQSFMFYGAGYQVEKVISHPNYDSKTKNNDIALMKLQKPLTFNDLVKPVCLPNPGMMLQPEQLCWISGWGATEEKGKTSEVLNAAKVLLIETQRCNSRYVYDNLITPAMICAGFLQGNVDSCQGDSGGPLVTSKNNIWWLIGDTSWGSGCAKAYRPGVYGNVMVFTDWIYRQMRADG

TMPRSS2 [13] = settings: Caco-2 cells, 18 h treatment then washout
TMPRSS2 [14] = settings: Beas-2B; for TMPRSS2 densitometry: Fig. 6A, 6 h, listed as HFG
[15] = human, 3.5 mg/day Oral; cited from earlier work
[16] = cited from earlier work
in vitro = settings: human
TMPRSS2 [17] = biological target: T1, TMPRSS2; assay: TMPRSS2 activity assay (Boc-Gln-Ala-Arg-MCA fluorescence); assay type: biochemical; set-up: purchased LSBio; settings: for TMPRSS2 activity (FigS9 source data): replicates
Description: Fluorescence (380-15 nm excitation/470-20 nm emission) of the samples was monitored over 4:45 h and the slope of the curves was calculated by linear regression analysis and used as output for TMPRSS2 activity.
Target sequence in this assay (O15393 106-492): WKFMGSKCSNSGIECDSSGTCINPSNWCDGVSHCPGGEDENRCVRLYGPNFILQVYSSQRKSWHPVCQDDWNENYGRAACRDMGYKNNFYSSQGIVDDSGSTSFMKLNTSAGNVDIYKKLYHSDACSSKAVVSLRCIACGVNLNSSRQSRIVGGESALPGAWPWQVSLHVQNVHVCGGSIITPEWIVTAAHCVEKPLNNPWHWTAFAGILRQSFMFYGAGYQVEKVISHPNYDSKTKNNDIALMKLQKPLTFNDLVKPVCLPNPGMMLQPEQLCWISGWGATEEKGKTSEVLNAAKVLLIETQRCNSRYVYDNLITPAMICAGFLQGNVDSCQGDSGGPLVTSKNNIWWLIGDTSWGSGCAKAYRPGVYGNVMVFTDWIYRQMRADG

Structure (SMILES): O=C(CC1NCCCC1O)Cn1cnc2cc(Br)c(Cl)cc2c1=O (stereo not drawn) [Halofuginone]
- IC50 (SARS-CoV-2 pseudovirus [1]; Caco-2, read-out: In vitro IC50 (viral entry)): ~30 nM
- IC50 (SARS-CoV-2 pseudovirus [1]; Caco-2, read-out: concentration for 50% reduction in the level of pseudoviral entry): ~300 nM
- pseudoviral GFP expression (SARS-CoV-2 pseudovirus [2]): markedly reduced levels of GFP expression
- pseudoviral luciferase reporter signal (SARS-CoV-2 pseudovirus [3]): dose-dependent reduction of the luciferase signal
- signal relative to Control (FigS7 source data) (SARS-CoV-2 pseudovirus [3]): 0.6435 and 0.5799 and 0.5278
- reduction of SARS-CoV-2 viral infection [4]: highly effective in reducing SARS-CoV-2 viral infection
- TMPRSS2-V5 versus LacZ-V5 expression (TMPRSS2-V5): selectively reduced TMPRSS2 expression
- ST14 mRNA expression (ST14): 0.847 and 0.804 and 0.672 and 1.192
- DCAF1 gene expression (DCAF1 [5]; Caco-2, 3µM): do not affect DCAF1 gene expression
- relative DCAF1 gene expression (DCAF1 [5]; block Vehicle/HFG/HHT, replicates, listed as HFG): 1.066 and 1.83 and 0.845 and 0.576
- binding to DCAF1 (DCAF1 [6]): does not bind
- synthesis of TMPRSS2 (TMPRSS2 [7]): can inhibit the in vitro and in vivo synthesis of TMPRSS2 in a proline-dependent fashion
- pseudoviral entry relative to Veh (SARS-CoV-2 pseudovirus [8]; concentration 0.0137 (unit not given), 0mM Proline): 152.697 and 134.687 and 120.427 and 97.7116 and 89.0983 and 90.8546 and 80.2015 and 88.7016
- pseudoviral entry relative to Veh (SARS-CoV-2 pseudovirus [8]; concentration 0.0137 (unit not given), 1mM Proline): 78.8997 and 119.296 and 92.4783 and 61.8538 and 121.318 and 103.717 and 95.0292 and 87.0468
- pseudoviral entry relative to Veh (SARS-CoV-2 pseudovirus [8]; concentration 0.0137 (unit not given), 5mM Proline): 83.8659 and 82.9011 and 90.5346 and 126.552 and 83.6269 and 86.2224 and 92.3835 and 76.5378
- pseudoviral entry relative to Veh (SARS-CoV-2 pseudovirus [8]; concentration 0.0412 (unit not given), 0mM Proline): 135.074 and 83.8509 and 103.144 and 111.461 and 116.846 and 105.51 and 105.878 and 113.705
- pseudoviral entry relative to Veh (SARS-CoV-2 pseudovirus [8]; concentration 0.0412 (unit not given), 1mM Proline): 110.112 and 97.4283 and 87.7103 and 127.69 and 97.5882 and 67.824 and 78.2944 and 117.716
- pseudoviral entry relative to Veh (SARS-CoV-2 pseudovirus [8]; concentration 0.0412 (unit not given), 5mM Proline): 82.5299 and 121.265 and 73.6811 and 85.0503 and 103.755 and 88.171 and 83.5837 and 102.919
- pseudoviral entry relative to Veh (SARS-CoV-2 pseudovirus [8]; concentration 0.123 (unit not given), 0mM Proline): 99.7343 and 63.0974 and 80.3685 and 70.3519 and 79.4198 and 74.6305 and 82.2505 and 58.3341
- pseudoviral entry relative to Veh (SARS-CoV-2 pseudovirus [8]; concentration 0.123 (unit not given), 1mM Proline): 81.4705 and 100.257 and 127.468 and 88.584 and 113.575 and 85.4328 and 91.2395 and 78.3868
- pseudoviral entry relative to Veh (SARS-CoV-2 pseudovirus [8]; concentration 0.123 (unit not given), 5mM Proline): 62.4818 and 82.8199 and 109.855 and 101.172 and 80.2202 and 78.6211 and 92.2054 and 82.6012
- pseudoviral entry relative to Veh (SARS-CoV-2 pseudovirus [8]; concentration 0.37 (unit not given), 0mM Proline): 52.2274 and 41.9717 and 59.924 and 47.6381 and 40.7991 and 39.6967 and 44.7511 and 47.5163
- pseudoviral entry relative to Veh (SARS-CoV-2 pseudovirus [8]; concentration 0.37 (unit not given), 1mM Proline): 63.0963 and 89.0802 and 95.5491 and 76.9085 and 75.5967 and 54.6206 and 124.078 and 94.9093
- pseudoviral entry relative to Veh (SARS-CoV-2 pseudovirus [8]; concentration 0.37 (unit not given), 5mM Proline): 84.0152 and 111.59 and 116.82 and 90.6831 and 82.0915 and 111.563 and 85.8373 and 95.0829
- protection against pseudoviral entry with proline augmentation (SARS-CoV-2 pseudovirus [8]; proline added to cell culture media): ablated
- E-cadherin protein (E-cadherin): unaffected
- Ace2 protein (Ace2-GFP): unaffected
- time to substantial reduction in TMPRSS2 expression (TMPRSS2 [9]; Caco-2 cells, 3 µM): within three hours
- endogenous TMPRSS2 protein expression (TMPRSS2 [9]; Caco-2 cells, 18 h): marked reduction
- TMPRSS2 densitometry (relative to 0) (TMPRSS2 [9]; head 1 (unit not given)): 0.1807 and 0.1069
- TMPRSS2 densitometry (relative to 0) (TMPRSS2 [9]; head 3): 0.1607 and 0.08785
- TMPRSS2 densitometry, time course (TMPRSS2 [9]; time head 3): 0.6876 and 0.6922 and 0.7386
- TMPRSS2 densitometry, time course (TMPRSS2 [9]; time head 6): 0.2973 and 0.5193 and 0.5743
- TMPRSS2 densitometry, time course (TMPRSS2 [9]; time head 24): 0.2861 and 0.2479 and 0.396
- TMPRSS2 protein levels (TMPRSS2 [10]): qualitatively similar decreases
- TMPRSS2 transcription (TMPRSS2 [11]; Caco-2 cells): modestly increased
- TMPRSS2 mRNA expression, Set1 (TMPRSS2 [11]; Fig. S3B, Caco-2, 6 hr, relative to Veh): 1.663 and 2.342 and 1.988 and 2.135
- binding to TMPRSS2 (TMPRSS2 [12]): does not bind
- recovery of TMPRSS2 levels after drug removal (TMPRSS2 [13]): returned close to baseline roughly six hours after drug removal
- effect on TMPRSS2 protein levels in DCAF1-knockdown cells (TMPRSS2 [14]; DCAF1 siRNA): abrogated
- TMPRSS2 expression in control knockdown cells (TMPRSS2 [14]; control siRNA): reduced TMPRSS2 expression
- TMPRSS2 densitometry (TMPRSS2 [14]; Ctrl siRNA, HFG 100 nM): 0.643 and 0.6245 and 0.6321
- TMPRSS2 densitometry (TMPRSS2 [14]; Ctrl siRNA, HFG 300 nM): 0.4952 and 0.3574 and 0.5989
- TMPRSS2 densitometry (TMPRSS2 [14]; DCAF1 KD 1, HFG 100 nM): 1.233 and 1.219 and 1.274
- TMPRSS2 densitometry (TMPRSS2 [14]; DCAF1 KD 1, HFG 300 nM): 1.254 and 1.215 and 1.261
- TMPRSS2 densitometry (TMPRSS2 [14]; DCAF1 KD 2, HFG 100 nM): 1.233 and 1.237 and 1.31
- TMPRSS2 densitometry (TMPRSS2 [14]; DCAF1 KD 2, HFG 300 nM): 1.246 and 1.239 and 1.116
- Cmax [15]: 7 nM
- toxicity profile [16]: very mild toxicity profile and is generally well tolerated
- CC50 (in vitro): ~5540 nM
- TMPRSS2 activity (FigS9 source data) (TMPRSS2 [17]; 0.08 µM): 0.4091 and 0.4156 and 0.3953 and 0.4416
- TMPRSS2 activity (FigS9 source data) (TMPRSS2 [17]; 0.4 µM): 0.4106 and 0.359 and 0.3929 and 0.3576
- TMPRSS2 activity (FigS9 source data) (TMPRSS2 [17]; 2 µM): 0.4305 and 0.3555 and 0.3601 and 0.3121
- TMPRSS2 catalytic activity (TMPRSS2 [17]; recombinant TMPRSS2, preliminary): does not inhibit TMPRSS2 catalytic activity
